Each structure is given as a SMILES string.

As usually defined, the IC50 is the concentration needed to halve the response being measured.

The target of the test is Serine/threonine-protein kinase PLK3 (Homo sapiens) (UniProt Q9H4B4). Put plainly: inhibition of PLK3 peptide phosphorylation – biochemical, Z'-LYTE FRET, direct format, human, dose response (AID 1671358). As to conditions: Z'-LYTE FRET kinase assay.
Sequence of Serine/threonine-protein kinase PLK3 (Homo sapiens) (Q9H4B4 whole entry, looked up): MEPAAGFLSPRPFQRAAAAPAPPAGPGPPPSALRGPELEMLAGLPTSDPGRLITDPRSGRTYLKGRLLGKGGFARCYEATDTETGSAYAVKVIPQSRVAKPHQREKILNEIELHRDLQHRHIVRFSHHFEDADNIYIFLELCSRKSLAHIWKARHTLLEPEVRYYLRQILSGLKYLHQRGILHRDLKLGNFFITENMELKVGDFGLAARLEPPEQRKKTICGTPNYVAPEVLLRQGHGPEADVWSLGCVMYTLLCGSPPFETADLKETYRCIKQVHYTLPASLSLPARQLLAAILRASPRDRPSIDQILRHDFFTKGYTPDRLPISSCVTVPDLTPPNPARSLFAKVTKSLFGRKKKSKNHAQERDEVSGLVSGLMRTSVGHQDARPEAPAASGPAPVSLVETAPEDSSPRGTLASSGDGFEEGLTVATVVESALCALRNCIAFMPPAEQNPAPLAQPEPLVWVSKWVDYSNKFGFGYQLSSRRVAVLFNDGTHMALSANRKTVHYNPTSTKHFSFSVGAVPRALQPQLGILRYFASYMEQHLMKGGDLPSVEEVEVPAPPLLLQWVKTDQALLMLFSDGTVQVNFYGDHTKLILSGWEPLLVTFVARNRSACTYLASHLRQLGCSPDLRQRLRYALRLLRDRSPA

Turning to `Brc1c(Br)c(Br)c2n[nH]nc2c1Br`, the IC50 is 1.85 µM.

The values above are taken from PubChem BioAssay AID1671358.
